According to patent US9783537B2, “3-(4-ethylnylphenyl) pyridopyrimidinone compounds and process for preparation thereof useful as potential anticancer agents” (Council of Scientific & Industrial Research, priority 2013, dated 2017):
Like-named read-outs stand apart in the source and are kept apart here.

Experiments:
NCI/ADR-RES = experiment: SRB 48 h growth assay, Ovarian NCI/ADR-RES; type: cell-based, human
DU-145 = experiment: SRB 48 h growth assay, Prostate DU-145; type: cell-based, human; conditions: DU-145, Prostate
A498 = experiment: SRB 48 h growth assay, Renal A498; type: cell-based, human
[1] = tested on: six breast cancer cell line (MCF-7, MDA-MB-231/ATCC, HS 578T, TD-47D, MDA-MB-468 and BT-549); experiment: in vitro anticancer activity, breast panel; type: cell-based; conditions: Homo sapiens; six breast cancer cell lines, exposure at least 48 h; read-out: GI50, range over panel
K-562 = experiment: SRB 48 h growth assay, Leukemia K-562; type: cell-based, human
NCI-H226 = experiment: SRB 48 h growth assay, Non-small Cell Lung NCI-H226; type: cell-based, human
T-47D = experiment: SRB 48 h growth assay, Breast T-47D; type: cell-based, human
SR = experiment: SRB 48 h growth assay, Leukemia SR; type: cell-based, human
SK-OV-3 = experiment: SRB 48 h growth assay, Ovarian SK-OV-3; type: cell-based, human; conditions: SK-OV-3, Ovarian
HOP-92 = experiment: SRB 48 h growth assay, Non-small Cell Lung HOP-92; type: cell-based, human; conditions: Homo sapiens, HOP-92, Non-small Cell Lung
[2] = tested on: seven ovarian cancer cell lines (IGROV1, OVCAR-3, OVCAR-4, OVCAR-5, OVCAR-8, NCI/ADR-RES and SK-OV-3); experiment: in vitro anticancer activity, ovarian panel; type: cell-based; conditions: Homo sapiens, exposure at least 48 h, read-out: GI50, range over panel
[3] = tested on: eight renal cancer cell line (786-0, A498, ACHN, CAKI-1, SN12C, TK-10, UO-31 and RXF 393); experiment: in vitro anticancer activity, renal panel; type: cell-based; conditions: Homo sapiens; eight renal cancer cell lines, exposure at least 48 h; read-out: in vitro anticancer activity, range over panel
OVCAR-4 = experiment: SRB 48 h growth assay, Ovarian OVCAR-4; type: cell-based, human; conditions: OVCAR-4, Ovarian
786-0 = experiment: SRB 48 h growth assay, Renal 786-0; type: cell-based, human; conditions: 786-0, Renal
[4] = tested on: seven colon cancer cell line (COLO 205, HCC-2998, HCT-116, HCT-15, HT29, KM12 and SW-620); experiment: in vitro anticancer activity, colon panel; type: cell-based; conditions: Homo sapiens; seven colon cancer cell lines, exposure at least 48 h; read-out: GI50, range over panel
SK-MEL-2 = experiment: SRB 48 h growth assay, Melanoma SK-MEL-2; type: cell-based, human; conditions: SK-MEL-2, Melanoma
HOP-62 = experiment: SRB 48 h growth assay, Non-small Cell Lung HOP-62; type: cell-based, human; conditions: HOP-62, Non-small Cell Lung
OVCAR-3 = experiment: SRB 48 h growth assay, Ovarian OVCAR-3; type: cell-based, human; conditions: OVCAR-3, Ovarian
ACHN = experiment: SRB 48 h growth assay, Renal ACHN; type: cell-based, human
[5] = tested on: six CNS cancer cell line (SF-268, SF-295, SF-539, SNB-19, SNB-75 and U251); experiment: in vitro anticancer activity, CNS panel; type: cell-based; conditions: Homo sapiens; six CNS cancer cell lines, exposure at least 48 h; read-out: GI50, range over panel
UACC-257 = experiment: SRB 48 h growth assay, Melanoma UACC-257; type: cell-based, human; conditions: UACC-257, Melanoma
U251 = experiment: SRB 48 h growth assay, CNS U251; type: cell-based, human
NCI-H322M = experiment: SRB 48 h growth assay, Non-small Cell Lung NCI-H322M; type: cell-based, human
NCI-H460 = experiment: SRB 48 h growth assay, Non-small Cell Lung NCI-H460; type: cell-based, human
IGROV1 = experiment: SRB 48 h growth assay, Ovarian IGROV1; type: cell-based, human
MDA-MB-468 = experiment: SRB 48 h growth assay, Breast MDA-MB-468; type: cell-based, human; conditions: MDA-MB-468, Breast
[6] = Homo sapiens, read-out: Growth Inhibition GI50
[7] = Homo sapiens, read-out: Log10 GI50 (converted)
[8] = Homo sapiens, read-out: Log10 LC50 (converted)

SMILES: C#Cc1ccc(-n2c(/C=C/c3ccc(C(F)(F)F)cc3)nc3ncccc3c2=O)cc1 [4c, (E)-3-(4-Ethynylphenyl)-2-(4-(trifluoromethyl)styryl)pyrido[2,3-d]pyrimidin-4(3H)-one]
- Log10 TGI50 (NCI/ADR-RES): −5.16
- GI50 (NCI/ADR-RES; [6]): 2500 nM
- GI50 (NCI/ADR-RES; [7]): 2510 nM
- CC50 (NCI/ADR-RES; [8]): > 100000 nM
- Log10 TGI50 (DU-145): −4.92
- GI50 (DU-145; [6]): 3760 nM
- GI50 (DU-145; [7]): 3720 nM
- CC50 (DU-145; [8]): 38900 nM
- Log10 TGI50 (A498): −5.24
- GI50 (A498; [6]): 2340 nM
- GI50 (A498; [7]): 2400 nM
- CC50 (A498; [8]): 24000 nM
- GI50 [1]: 960 to 7620 nM
- GI50 (K-562; Homo sapiens, K562, K-562, Leukemia, read-out: Growth Inhibition GI50): 2960 nM
- GI50 (K-562; Homo sapiens, K562, K-562, Leukemia, read-out: Log10 GI50 (converted)): 2950 nM
- CC50 (K-562; Homo sapiens, K562, K-562, Leukemia, read-out: Log10 LC50 (converted)): > 100000 nM
- Log10 TGI50 (K-562; K-562, Leukemia): −5.06
- Log10 TGI50 (NCI-H226): −5.39
- GI50 (NCI-H226; [6]): 1990 nM
- GI50 (NCI-H226; [7]): 2000 nM
- LC50 (NCI-H226; [8]): 8510 nM
- Log10 TGI50 (T-47D): −5.30
- GI50 (T-47D; Homo sapiens, T47D, read-out: Growth Inhibition GI50): 2020 nM
- GI50 (T-47D; Homo sapiens, T47D, read-out: Log10 GI50 (converted)): 2000 nM
- CC50 (T-47D; Homo sapiens, T47D, read-out: Log10 LC50 (converted)): 28200 nM
- Log10 TGI50 (SR): −5.09
- GI50 (SR; [6]): 2000 nM
- GI50 (SR; [7]): 2000 nM
- CC50 (SR; [8]): > 100000 nM
- GI50 (SK-OV-3; [6]): 3610 nM
- GI50 (SK-OV-3; [7]): 3630 nM
- CC50 (SK-OV-3; [8]): 53700 nM
- Log10 TGI50 (SK-OV-3): −4.87
- GI50 (HOP-92; read-out: Growth Inhibition GI50): 1320 nM
- GI50 (HOP-92; read-out: Log10 GI50 (converted)): 1320 nM
- CC50 (HOP-92; read-out: Log10 LC50 (converted)): 8910 nM
- GI50 [2]: 1950 to 7550 nM
- GI50 [3]: 1690 to 4080 nM
- GI50 (OVCAR-4; [6]): 1580 nM
- GI50 (OVCAR-4; [7]): 479 nM
- CC50 (OVCAR-4; [8]): 6920 nM
- Log10 TGI50 (OVCAR-4): −5.48
- Log10 TGI50 (786-0): −5.43
- GI50 (786-0; [6]): 2060 nM
- GI50 (786-0; [7]): 2040 nM
- CC50 (786-0; [8]): 6610 nM
- GI50 [4]: 2060 to 3260 nM
- GI50 (SK-MEL-2; [6]): 2030 nM
- GI50 (SK-MEL-2; [7]): 2040 nM
- CC50 (SK-MEL-2; [8]): 8320 nM
- Log10 TGI50 (SK-MEL-2): −5.39
- Log10 TGI50 (HOP-62): −5.29
- GI50 (HOP-62; [6]): 2430 nM
- GI50 (HOP-62; [7]): 2450 nM
- CC50 (HOP-62; [8]): > 100000 nM
- GI50 (OVCAR-3; [6]): 1670 nM
- GI50 (OVCAR-3; [7]): 1660 nM
- CC50 (OVCAR-3; [8]): 6030 nM
- Log10 TGI50 (OVCAR-3): −5.50
- Log10 TGI50 (ACHN): −5.49
- GI50 (ACHN; [6]): 1710 nM
- GI50 (ACHN; [7]): 1700 nM
- CC50 (ACHN; [8]): 6170 nM
- GI50 [5]: 2600 to 3690 nM
- GI50 (UACC-257; [6]): 1560 nM
- GI50 (UACC-257; [7]): 1550 nM
- CC50 (UACC-257; [8]): 5620 nM
- Log10 TGI50 (UACC-257): −5.53
- Log10 TGI50 (U251): −5.50
- GI50 (U251; Homo sapiens, U-251, read-out: Growth Inhibition GI50): 1670 nM
- GI50 (U251; Homo sapiens, U-251, read-out: Log10 GI50 (converted)): 1660 nM
- CC50 (U251; Homo sapiens, U-251, read-out: Log10 LC50 (converted)): 5890 nM
- Log10 TGI50 (NCI-H322M): −5.15
- GI50 (NCI-H322M; [6]): 2250 nM
- GI50 (NCI-H322M; [7]): 2240 nM
- CC50 (NCI-H322M; [8]): 27500 nM
- Log10 TGI50 (NCI-H460): −5.38
- GI50 (NCI-H460; [6]): 1980 nM
- GI50 (NCI-H460; [7]): 2000 nM
- LC50 (NCI-H460; [8]): 8710 nM
- Log10 TGI50 (IGROV1): −5.40
- GI50 (IGROV1; Homo sapiens, IGROV-1, read-out: Growth Inhibition GI50): 1960 nM
- GI50 (IGROV1; Homo sapiens, IGROV-1, read-out: Log10 GI50 (converted)): 1950 nM
- CC50 (IGROV1; Homo sapiens, IGROV-1, read-out: Log10 LC50 (converted)): 8320 nM
- GI50 (MDA-MB-468; [6]): 1510 nM
- GI50 (MDA-MB-468; [7]): 1510 nM
- CC50 (MDA-MB-468; [8]): 8710 nM
- Log10 TGI50 (MDA-MB-468): −5.44
